Laboratory results: patent publication US20260285855A1, “HETEROARYL DERIVATIVES AS DDRS INHIBITORS” (CHIESI FARMACEUTICI S.P.A., priority 2023, published 2026)
Where two headings read alike, the source gives them in different places.

Legend:
DDR1 = target: T1, DDR1 (Homo sapiens, UniProt Q08345); assay: LanthaScreen Europium Kinase Binding assay, DDR1
T1 construct: purchased Carna Biosciences
Experimental: (§1) DDR1 and DDR2 binding assays were performed using Life Technologies LanthaScreen™ Europium Kinase Binding assay. […] IC50 values were determined in GraphPad Prism 7.0 software, using 4 parameter model: log (inhibitor) vs. response. IC50 values were converted in Ki using the Cheng-Prusoff equation (Ki-IC50/(1+ [Tracer]/Kd).

DDR2 = target: T2, DDR2 (Homo sapiens, UniProt Q16832); assay: LanthaScreen Europium Kinase Binding assay, DDR2
T2 construct: purchased Life Technologies
T2 sequence (Q16832 22-855): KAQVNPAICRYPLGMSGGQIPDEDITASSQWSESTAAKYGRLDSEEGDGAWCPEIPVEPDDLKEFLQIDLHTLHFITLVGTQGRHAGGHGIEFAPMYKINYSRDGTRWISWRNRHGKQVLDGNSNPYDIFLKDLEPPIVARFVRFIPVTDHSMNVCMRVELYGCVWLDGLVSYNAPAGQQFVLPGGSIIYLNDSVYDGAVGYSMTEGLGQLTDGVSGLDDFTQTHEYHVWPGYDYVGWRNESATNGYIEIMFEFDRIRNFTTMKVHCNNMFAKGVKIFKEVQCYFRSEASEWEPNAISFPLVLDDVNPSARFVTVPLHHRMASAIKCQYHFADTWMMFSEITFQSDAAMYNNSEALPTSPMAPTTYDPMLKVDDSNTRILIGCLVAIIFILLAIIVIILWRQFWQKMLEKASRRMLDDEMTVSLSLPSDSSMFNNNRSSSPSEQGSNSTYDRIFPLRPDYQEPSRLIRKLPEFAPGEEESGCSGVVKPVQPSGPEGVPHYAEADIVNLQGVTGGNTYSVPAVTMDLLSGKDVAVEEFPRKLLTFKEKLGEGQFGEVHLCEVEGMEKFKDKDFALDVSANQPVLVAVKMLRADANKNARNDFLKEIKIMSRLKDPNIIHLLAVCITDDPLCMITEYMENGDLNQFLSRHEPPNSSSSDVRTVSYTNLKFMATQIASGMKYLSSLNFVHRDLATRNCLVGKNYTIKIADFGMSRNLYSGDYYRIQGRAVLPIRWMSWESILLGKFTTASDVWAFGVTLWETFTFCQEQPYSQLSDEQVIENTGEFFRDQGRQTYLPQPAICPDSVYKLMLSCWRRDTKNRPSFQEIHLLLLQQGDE
Experimental: as §1

[1] = 5 nM DDR1, 20 nM Kinase Tracer 178, 1 h at rt, Ki from IC50 by Cheng-Prusoff, read-out: Ki DDR1
[2] = 5 nM DDR2, 10 nM Kinase Tracer 178, 1 h at rt, Ki from IC50 by Cheng-Prusoff, read-out: Ki DDR2
[3] = same binding assay, numeric values
[4] = same binding assay, numeric values, read-out: DDR1 Ki
[5] = same binding assay, numeric values, read-out: DDR2 Ki

T1 sequence (Q08345 19-913): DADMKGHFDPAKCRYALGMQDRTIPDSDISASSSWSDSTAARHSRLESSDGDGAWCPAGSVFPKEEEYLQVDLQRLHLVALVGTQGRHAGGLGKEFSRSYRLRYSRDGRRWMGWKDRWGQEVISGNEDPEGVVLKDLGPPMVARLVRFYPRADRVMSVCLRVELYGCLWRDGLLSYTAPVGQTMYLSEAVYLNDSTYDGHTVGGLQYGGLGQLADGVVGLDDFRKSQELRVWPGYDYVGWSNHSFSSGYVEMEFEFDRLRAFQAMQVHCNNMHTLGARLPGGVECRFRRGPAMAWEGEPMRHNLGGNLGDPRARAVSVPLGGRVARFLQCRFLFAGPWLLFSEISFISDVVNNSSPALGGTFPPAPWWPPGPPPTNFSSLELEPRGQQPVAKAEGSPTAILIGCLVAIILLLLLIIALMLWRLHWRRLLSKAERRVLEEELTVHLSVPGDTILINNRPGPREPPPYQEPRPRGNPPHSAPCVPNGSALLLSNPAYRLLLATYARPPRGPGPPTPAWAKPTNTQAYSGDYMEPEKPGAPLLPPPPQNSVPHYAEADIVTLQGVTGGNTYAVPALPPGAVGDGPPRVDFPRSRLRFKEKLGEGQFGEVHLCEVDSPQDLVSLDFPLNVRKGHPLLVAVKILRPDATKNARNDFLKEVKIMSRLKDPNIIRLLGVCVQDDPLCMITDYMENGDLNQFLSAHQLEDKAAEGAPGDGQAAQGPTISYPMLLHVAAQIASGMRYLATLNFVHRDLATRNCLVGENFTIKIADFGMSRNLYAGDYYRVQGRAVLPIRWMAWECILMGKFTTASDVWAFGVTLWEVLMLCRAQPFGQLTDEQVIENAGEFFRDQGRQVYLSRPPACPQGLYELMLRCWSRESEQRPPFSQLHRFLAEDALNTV

Row | SMILES | Ki (DDR1; [1]) [nM] | Ki (DDR2; [2]) [nM] | DDR1 Ki (nM) (DDR1; [3]) | Ki (DDR1; [4]) [nM] | DDR2 Ki (nM) (DDR2; [3]) | Ki (DDR2; [5]) [nM]
1 | Cn1ccn2ncc(C(=O)N3CC4(CC(NC(=O)Nc5cc(C#N)cc(C(F)(F)F)c5)C4)C3)c12 [Example 39, 1-(3-cyano-5-(trifluoromethyl)phenyl)-3-(2-(1-methyl-1H-imidazo[1,2-b]pyrazole-7-carbonyl)-2-azaspiro[3.3]heptan-6-yl)urea] | < 5 | < 5 |  |  |  | 
2 | COc1ccc(OC(F)(F)F)cc1NC(=O)N(C)C1CC2(C1)CN(C(=O)c1cnn3ccn(C)c13)C2 [Example 52, 3-(2-methoxy-5-(trifluoromethoxy)phenyl)-1-methyl-1-(2-(1-methyl-1H-imidazo[1,2-b]pyrazole-7-carbonyl)-2-azaspiro[3.3]heptan-6-yl)urea] | < 5 | 5 to 25 |  |  |  | 
3 | COc1ccc(OC(F)(F)F)cc1NC(=O)OC1CC2(C1)CN(C(=O)c1cnn3ccn(C)c13)C2 [Example 144, 2-(1-methyl-1H-imidazo[1,2-b]pyrazole-7-carbonyl)-2-azaspiro[3.3]heptan-6-yl(2-methoxy-5-(trifluoromethoxy)phenyl)carba-mate] | < 5 | 5 to 25 |  |  |  | 
4 | O=C(NC1CC2(C1)CN(C(=O)Nc1cccc(C(F)(F)F)c1)C2)c1cnn2ccncc12 [Example C3, N-(2-((3-(trifluoromethyl)phenyl)carbamoyl)-2-azaspiro[3.3]heptan-6-yl) pyrazolo[1,5-a]pyrazine-3-carboxamide, reference compound] |  |  | did not show a binding affinity | > 500 | did not show a binding affinity | > 500
5 | CN(C(=O)Nc1cncc(C(F)(F)F)c1)C1CC2(C1)CN(c1cnc3[nH]ccc3c1)C2 [Example 220, 1-(2-(1H-pyrrolo[2,3-b]pyridin-5-yl)-2-azaspiro[3.3]heptan-6-yl)-1-methyl-3-(5-(trifluoromethyl)pyridin-3-yl)urea] | 5 to 25 | 25 to 100 |  |  |  | 
6 | O=C(NC1CC2(C1)CN(C(=O)c1cnn3ccncc13)C2)c1cccc(C(F)(F)F)c1 [Example C1, N-(2-(pyrazolo[1,5-a]pyrazine-3-carbonyl)-2-azaspiro[3.3]heptan-6-yl)-3-(trifluoromethyl)benzamide, reference compound] |  |  | did not show a binding affinity | > 500 | did not show a binding affinity | > 500
7 | COc1ccc(OC(F)(F)F)cc1NC(=O)NC1CC2(C1)CN(C(=O)c1cnn3ccn(C)c13)C2 [Example 36, 1-(2-methoxy-5-(trifluoromethoxy)phenyl)-3-(2-(1-methyl-1H-imidazo[1,2-b]pyrazole-7-carbonyl)-2-azaspiro[3.3]heptan-6-yl)urea] | < 5 | 5 to 25 |  |  |  | 
8 | COc1ccc(OC(F)(F)F)cc1NC(=O)NC1CC2(C1)CN(C(=O)c1cnn3cccnc13)C2 [Example 55, 1-(2-methoxy-5-(trifluoromethoxy)phenyl)-3-(2-(pyrazolo[1,5-a]pyrimidine-3-carbonyl)-2-azaspiro[3.3]heptan-6-yl)urea] | < 5 | 5 to 25 |  |  |  | 
9 | Cn1cc(N2CCOCC2)n2ncc(C(=O)N3CC4(CC(NC(=O)Nc5cccc(C(F)(F)F)c5)C4)C3)c12 [Example 192, 1-(2-(1-methyl-3-morpholino-1H-imidazo[1,2-b]pyrazole-7-carbonyl)-2-azaspiro[3.3]heptan-6-yl)-3-(3-(trifluoromethyl)phenyl)urea] | 25 to 100 | 25 to 100 |  |  |  | 
10 | Cn1ccn2ncc(C(=O)N3CC4(CC(OC(=O)Nc5cncc(OC(F)(F)F)c5)C4)C3)c12 [Example 299, 2-(1-methyl-1H-imidazo[1,2-b]pyrazole-7-carbonyl)-2-azaspiro[3.3]heptan-6-yl(5-(trifluoromethoxy)pyridin-3-yl)carbamate] | < 5 | < 5 |  |  |  | 
11 | Nc1ccn2ncc(C(=O)N3CC4(CC(NC(=O)Nc5cccc(C(F)(F)F)c5)C4)C3)c2c1 [Example 184, 1-(2-(5-aminopyrazolo[1,5-a]pyridine-3-carbonyl)-2-azaspiro[3.3]heptan-6-yl)-3-(3-(trifluoromethyl)phenyl)urea] | < 5 | < 5 |  |  |  | 
12 | O=C(Nc1cccc(C(F)(F)F)c1)NC1CC2(C1)CN(C(=O)c1cnn3ccn(CCO)c13)C2 [Example 102, 1-(2-(1-(2-hydroxyethyl)-1H-imidazo[1,2-b]pyrazole-7-carbonyl)-2-azaspiro[3.3]heptan-6-yl)-3-(3-(trifluoromethyl)phenyl)urea] | < 5 | 5 to 25 |  |  |  | 
13 | Cn1ccn2ncc(C(=O)N3CC4(CC(NC(=O)Nc5ccc(F)c(OC(F)(F)F)c5)C4)C3)c12 [Example 118, 1-(4-fluoro-3-(trifluoromethoxy)phenyl)-3-(2-(1-methyl-1H-imidazo[1,2-b]pyrazole-7-carbonyl)-2-azaspiro[3.3]heptan-6-yl)urea] | < 5 | < 5 |  |  |  | 
14 | CN(C(=O)Nc1cc(OC(F)(F)F)ccc1F)C1CC2(C1)CN(C(=O)c1cnn3ccn(C)c13)C2 [Example 132, 3-(2-fluoro-5-(trifluoromethoxy)phenyl)-1-methyl-1-(2-(1-methyl-1H-imidazo[1,2-b]pyrazole-7-carbonyl)-2-azaspiro[3.3]heptan-6-yl)urea] | < 5 | 5 to 25 |  |  |  | 
15 | Cn1ccn2ncc(C(=O)N3CC4(CC(NC(=O)Nc5cccc(S(=O)(=O)C(F)(F)F)c5)C4)C3)c12 [Example 161, 1-(2-(1-methyl-1H-imidazo[1,2-b]pyrazole-7-carbonyl)-2-azaspiro[3.3]heptan-6-yl)-3-(3-((trifluoromethyl)sulfonyl)phenyl)urea] | < 5 | 5 to 25 |  |  |  | 
16 | CN(C(=O)Nc1cccc(C(F)(F)F)c1)C1CC2(C1)CN(C(=O)c1ncnc3[nH]ccc13)C2 [Example 247, 1-(2-(7H-pyrrolo[2,3-d]pyrimidine-4-carbonyl)-2-azaspiro[3.3]heptan-6-yl)-1-methyl-3-(3-(trifluoromethyl)phenyl)urea] | < 5 | 5 to 25 |  |  |  | 
17 | CN(C(=O)Nc1cc(C(C)(C)C)no1)C1CC2(C1)CN(C(=O)c1cnn3ccn(C)c13)C2 [Example 215, 3-(3-(tert-butyl)isoxazol-5-yl)-1-methyl-1-(2-(1-methyl-1H-imidazo[1,2-b]pyrazole-7-carbonyl)-2-azaspiro[3.3]heptan-6-yl)urea] | 5 to 25 | 25 to 100 |  |  |  | 
18 | Cc1ccc(OC(F)(F)F)cc1NC(=O)N(C)C1CC2(C1)CN(C(=O)c1cnn3ccsc13)C2 [Example 151, 1-methyl-3-(2-methyl-5-(trifluoromethoxy)phenyl)-1-(2-(pyrazolo[5,1-b]thiazole-7-carbonyl)-2-azaspiro[3.3]heptan-6-yl)urea] | < 5 | 5 to 25 |  |  |  | 
19 | Cc1c(F)cc(NC(=O)N(C)C2CC3(C2)CN(C(=O)c2cnn4ccn(C)c24)C3)cc1C(F)(F)F [Example 265, 3-(3-fluoro-4-methyl-5-(trifluoromethyl)phenyl)-1-methyl-1-(2-(1-methyl-1H-imidazo[1,2-b]pyrazole-7-carbonyl)-2-azaspiro[3.3]heptan-6-yl)urea] | < 5 | < 5 |  |  |  | 
20 | Cc1ncc(-c2ccc3c(C(=O)N4CC5(CC(N(C)C(=O)Nc6cncc(C(F)(F)F)c6)C5)C4)cnn3c2)s1 [Example 234, 1-methyl-1-(2-(6-(2-methylthiazol-5-yl)pyrazolo[1,5-a]pyridine-3-carbonyl)-2-azaspiro[3.3]heptan-6-yl)-3-(5-(trifluoromethyl)pyridin-3-yl)urea] | < 5 | 5 to 25 |  |  |  | 
21 | CN(C(=O)Nc1cc(C(C)(C)C(F)(F)F)on1)C1CC2(C1)CN(C(=O)c1cnn3ccn(C)c13)C2 [Example 199, 1-methyl-1-(2-(1-methyl-1H-imidazo[1,2-b]pyrazole-7-carbonyl)-2-azaspiro[3.3]heptan-6-yl)-3-(5-(1,1,1-trifluoro-2-methylpropan-2-yl)isoxazol-3-yl)urea] | < 5 | 5 to 25 |  |  |  | 
22 | CN(C(=O)Nc1cc(C(F)(F)F)ncn1)C1CC2(C1)CN(C(=O)c1cnn3ccn(C)c13)C2 [Example 170, 1-methyl-1-(2-(1-methyl-1H-imidazo[1,2-b]pyrazole-7-carbonyl)-2-azaspiro[3.3]heptan-6-yl)-3-(6-(trifluoromethyl)pyrimidin-4-yl)urea] | 5 to 25 | > 100 |  |  |  | 
23 | CN(C(=O)Nc1cncc(OC(F)(F)F)c1)C1CC2(C1)CN(C(=O)c1cnn3ccsc13)C2 [Example 179, 1-methyl-1-(2-(pyrazolo[5,1-b]thiazole-7-carbonyl)-2-azaspiro[3.3]heptan-6-yl)-3-(5-(trifluoromethoxy)pyridin-3-yl)urea] | < 5 | 5 to 25 |  |  |  | 
